# Assay results reported in patent US7582786B2, “Synthetic catalytic free radical scavengers useful as antioxidants for prevention and therapy of disease” (Eukarion Inc., priority 1996, dated 2009).
# Entries after “also recorded” stand apart in the source; their conditions may differ.
# Tests used:
# [1] = SOD activity, xanthine/xanthine oxidase with NBT as acceptor (Example 2); format: biochemical
# Description: Superoxide dismutase (SOD) activity was assayed by following the inhibition of the reduction of an electron acceptor molecule in the presence of the free-radical generating system xanthine/xanthine oxidase (McCord et al. (1973) Superoxide and Superoxide Dismutase in “Oxidases and Related Redox Systems, vol. I, King et al. eds., University Park press, Baltimore, pp. 51-76). The assay mixture consisted of 50 mM sodium phosphate, pH 7.8, 120 μM xanthine, 0.2 units/ml xanthine oxidase, with acceptor molecule and salen manganese compound, as indicated. Assays were conducted at 27±0.2° C. using a water-jacketed cell holder in a Beckman DU7400 spectrophotometer. In most cases, oxidized cytochrome c, at 0.13 mg/ml, was employed as acceptor and its reduction was monitored spectrophotometrically at 550 nm. In some experiments, nitroblue tetrazolium (NBT), at 80 μM, was substituted for cytochrome c as the acceptor. NBT reduction was also monitored at 550 nm. An estimated extinction coefficient for NBT reduction, 20,800 M^−1cm^−1, determined empirically by exhaustive reduction of NBT in the reaction mixture described above, was employed where indicated. This value agreed well with reported extinction coefficients for reduced tetrazolium dyes. […] Conversion of xanthine to urate was calculated using ε290's of […] for urate and 4050 M^−1cm^−1 for xanthine. […]
# dopaminergic neurons = assay: MPTP mouse model of Parkinson's disease (mazindol binding); format: in vivo
# Description: Neuronal damage was induced in mice by injection with MPTP as described in Example 1. Where indicated, mice were also treated with intraperitoneal injections of C40 at 0.02 or 0.2 mg/kg. The integrity of the nigrostriatal dopaminergic neurons was assessed based upon ^3H-Mazindol binding to striatal membranes harvested from the brains of these mice about 1 week after MPTP administration.
# The experiment was performed over a 7 day period. […] The animals were sacrificed after 7 days.
# [2] = tested on: Human dermal fibroblasts (HF cells); assay: Cell protection assay, tert-butylhydroperoxide (t-BHP) toxicity, XTT; format: cell-based
# Description: Human dermal fibroblasts (HF cells) were obtained from the American type tissue Culture Collection at passage 1 and cultured and propagated in a medium (HF medium) consisting of Dulbecco's Modified Eagle's Medium with 4.5 g/l D-glucose, 10% calf serum 4 mM glutamine, 50 units/ml penicillin, and 50 μg/ml streptomycin in a 37° C. humidified incubator equilibrated with 5% CO2. Cells were used at passages 5 or 6 for experiments. For cell protection assays, HF cells were seeded at a density of about 15,000 cells per cm2 onto 96-well culture plates and allowed to grow to confluence. To assess protection tert-butylhydroperoxide (t-BHP) toxicity, confluent cell layers were first treated with the indicated concentrations of test compounds dissolved in HF medium for 18 hr. The medium was then replaced with fresh medium containing test compounds and 0.5 mM tert-butylhydroperoxide (t-BHP) and cells were incubated for another 18 hr. The medium was then removed and replaced with fresh HF medium (100 μl per well) without test compounds or t-BHP. Fifty μl of XTT reagent (Boeringer Mannheim, Inc.), prepared as described by the manufacturer, was then added to each well and the plates returned to the incubator. After 2 hr., the absorbance at 490 nm was measured in a BioRad (Richmond, Calif.) Model 3550 plate-reader, using a reference wavelength of 655 nm. Control cells that had not been exposed to test compounds or toxic agents were included among the samples treated with XTT reagent. Absorbance measurements for blank wells, containing HF medium and XTT reagent but no cells, were also determined. To analyze protection from glucose/glucose oxidase toxicity, confluent cell layers were incubated with HF medium containing glucose oxidase (0.019 units/ml) along with test compounds, as indicated, for 18 hr in the tissue culture incubator. Fresh HF medium was then added and cell viability assessed using the XTT reagent as described above. For both these models, concentrations of toxic agents were selected that were reproducibly completely lethal. Cytotoxicity assessments were routinely confirmed by visual inspection of the cell layers prior to addition of the XTT reagent.
# Rats [3] = assay: Rat model for myocardial infarct (permanent coronary occlusion); format: in vivo; details: intravenous bolus immediately prior to surgery, 48 hr recovery
# Description: Rats were subjected to permanent regional cardiac ischemia by surgical occlusion of the left coronary artery. […] Sham-operated rats were subjected to surgery but the suture was not tied on the coronary artery. After a 48 hr recovery period, cardiac functional parameters were measured with a Millar transducing catheter implanted into the left ventricle.
# MRL/lpr mice = assay: Lifespan of autoimmune MRL/lpr mice; format: in vivo; details: 1 mg/mouse intraperitoneally three times per week
# Excerpt: MRL/lpr mice develop autoantibodies and numerous autoimmune associated pathologies and die prematurely (mean lifespan ˜150 days). They are considered a mouse model for autoimmune disorders such as lupus. […] Control mice received vehicle injections only or were left untreated.
# MRL/lpr mice develop autoantibodies and numerous autoimmune associated pathologies and die prematurely (mean lifespan˜150 days). They are considered a mouse model for autoimmune disorders such as lupus. […] Control mice received vehicle injections only or were left untreated.
# [4] = tested on: Human dermal fibroblasts (HF cells); assay: Cell protection assay, glucose/glucose oxidase toxicity, XTT; format: cell-based; details: for protection against glucose and glucose oxidase: glucose oxidase 0.019 units/ml
# Summary of the method: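 Confluent HF fibroblasts (passage 5–6) were incubated 18 h at 37 °C with test compounds plus glucose oxidase (0.019 units/ml) in DMEM containing 4.5 g/l glucose, a reproducibly lethal level. Viability was read by XTT after 2 h as absorbance at 490 nm (reference 655 nm), relative to untreated and cell-free blanks.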
# Rats [5] = assay: Ischemia-reperfusion induced kidney damage in the rat; format: in vivo; details: 0.2 mg/kg single intravenous bolus at beginning of reperfusion
# Description: Rats (“Untreated” and “C40” groups) were unilaterally nephrectomized. The remaining renal artery was clamped for 75 min then reperfused. Kidney function was assessed by determining creatinine levels in the blood. Where indicated, rats received C40 as a single intravenous bolus injection (0.2 mg/kg) at the beginning of the reperfusion period. Bilaterally nephrectomized rats, showing maximal creatinine levels in the absence of kidney function, died on day 2.
SMILES,"Cell viability, absorbance at 490 nm uncorrected for blank ([2]; 2.5 μM, t-BHP 0.5 mM)","Cell viability, absorbance at 490 nm uncorrected for blank ([2]; 5 μM, t-BHP 0.5 mM)","Cell viability, absorbance at 490 nm uncorrected for blank ([2]; 10 μM, t-BHP 0.5 mM)","Cell viability, absorbance at 490 nm uncorrected for blank ([2]; 20 μM, t-BHP 0.5 mM)","Cell viability, absorbance at 490 nm uncorrected for blank ([2]; 40 μM, t-BHP 0.5 mM)","Cell viability, absorbance at 490 nm uncorrected for blank ([2]; 80 μM, t-BHP 0.5 mM)","protection, left ventricular diastolic pressure (Rats [3])",protection against glucose and glucose oxidase (in words) [4],protection against glucose and glucose oxidase ([4]; 40 μM),protection against glucose and glucose oxidase ([4]; 80 μM),other results
[Cl][Mn]1[O]c2ccccc2C=NCCN=Cc2ccccc2[O]1 [Compound C7],0.28 ± 0.01,0.68 ± 0.31,1.45 ± 0.05,1.44 ± 0.05,1.42 ± 0.03,0.77 ± 0.41,protection,–,–,–,"NBT reduction ([1]; 0.1 to 6 μM C7): inhibited the rate of NBT reduction in a concentration-dependent manner; also recorded: inhibits NBT reduction; inhibition of NBT reduction ([1]; about 1.7 nmoles C7): about 59%; toxicity, adverse health effects (dopaminergic neurons; 7 day test period): absence of adverse health effects; number of surviving dopaminergic neurons in MPTP-treated mice (dopaminergic neurons; C7 33 mg/kg i.p. pretreatment, MPTP 40 mg/kg days 1 and 2): approximately doubled; number of dopaminergic neurons, C7 alone (dopaminergic neurons; C7 alone): not adversely affected; synergistic toxicity with t-BHP ([2]; 80 μM): possible synergistic toxicity; lifespan (MRL/lpr mice): prolongs the life"
COc1cccc2c1[O][Mn]([O]C(C)=O)[O]c1c(cccc1OC)C=NCCN=C2 [Compound C32],0.29 ± 0.01,0.28 ± 0.01,1.35 ± 0.05,1.43 ± 0.05,1.48 ± 0.06,1.40 ± 0.07,–,more protective than C43,significant protection,complete protection,–
COc1cc(OC)c2c(c1)[O][Mn]([O]C(C)=O)[O]c1cc(OC)cc(OC)c1C=NCCN=C2 [Compound C35],0.27 ± 0.01,0.27 ± 0.01,0.29 ± 0.03,1.40 ± 0.05,1.52 ± 0.07,0.57 ± 0.01,–,not cytoprotective,–,–,"toxicity of compound alone ([2]; 80 μM, without t-BHP): equivalent toxicity with or without t-BHP; concentration at which protection was observed ([2]; t-BHP 0.5 mM): ≥ 20 µM"
COc1cccc2c1[O][Mn]([Cl])[O]c1c(cccc1OC)C=NCCN=C2 [Compound C40],–,–,–,–,–,–,protection,–,significant protection,complete protection,"protection of dopaminergic neurons (3H-Mazindol binding to striatal membranes) (dopaminergic neurons; C40 0.02 or 0.2 mg/kg intraperitoneal): protects dopaminergic neurons; kidney damage, creatinine levels in the blood (Rats [5]): protects against ischemia-reperfusion induced kidney damage"
